Experimental data: ChEMBL document CHEMBL3885881, “DrugMatrix”

Organism: Rattus norvegicus
Assay: DrugMatrix - Regimen: Daily Repeat
Format: toxicity, organism-based, Sprague-Dawley
Parameters: regimen Daily Repeat, gender Male, age 6-8 weeks
Settings: in vivo, po, route oral GAVAGE, vehicle .5 % CMC; for ABSOLUTE BASOPHIL / ABSOLUTE EOSINOPHIL / ABSOLUTE LYMPHOCYTE / ABSOLUTE MONOCYTE / ABSOLUTE SEGMENTED NEUTROPHIL / BASOPHIL / EOSINOPHIL / ERYTHROCYTE COUNT / HEMATOCRIT / HEMOGLOBIN / LEUKOCYTE COUNT / LYMPHOCYTE / MEAN CORPUSCULAR HEMOGLOBIN / MEAN CORPUSCULAR HEMOGLOBIN CONCENTRATION / MEAN CORPUSCULAR VOLUME / MONOCYTE / NEUTROPHIL / NUCLEATED RED BLOOD CELLS / PLATELET COUNT: tissue Blood; for ALANINE AMINOTRANSFERASE / ALBUMIN / ALKALINE PHOSPHATASE / ASPARTATE AMINOTRANSFERASE / BLOOD UREA NITROGEN / CARBON DIOXIDE / CHLORIDE / CHOLESTEROL / CREATINE PHOSPHOKINASE / CREATININE / GLUCOSE / LACTATE DEHYDROGENASE / LIPASE / PHOSPHORUS / POTASSIUM / SODIUM / TOTAL BILIRUBIN / TOTAL PROTEIN / URIC ACID: tissue Plasma
[1] = 100 mg/kg, 120 h, dose level Low, time 5 day
[2] = 1500 mg/kg, 72 h, dose level High, time 3 day
[3] = 1500 mg/kg, 120 h, dose level High, time 5 day

O=C(O)CCc1nc(-c2ccccc2)c(-c2ccccc2)o1 [OXAPROZIN]
ABSOLUTE BASOPHIL [1]: 0 CELLS/uL
ABSOLUTE EOSINOPHIL [1]: 50.33 CELLS/uL
ABSOLUTE LYMPHOCYTE [1]: 11457 CELLS/uL
ABSOLUTE MONOCYTE [1]: 176 CELLS/uL
ABSOLUTE SEGMENTED NEUTROPHIL [1]: 1916.67 CELLS/uL
BASOPHIL [1]: 0%
EOSINOPHIL [1]: 0.33%
ERYTHROCYTE COUNT [1]: 5.42 x10E6/uL
HEMATOCRIT [1]: 34.23%
HEMOGLOBIN [1]: 13.93 G/DL
LEUKOCYTE COUNT [1]: 13.6 x10E3/uL
LYMPHOCYTE [1]: 84%
MEAN CORPUSCULAR HEMOGLOBIN [1]: 25.7 pg
MEAN CORPUSCULAR HEMOGLOBIN CONCENTRATION [1]: 40.67 G/DL
MEAN CORPUSCULAR VOLUME [1]: 63.1 fL
MONOCYTE [1]: 1.33%
NEUTROPHIL [1]: 14.33%
NUCLEATED RED BLOOD CELLS [1]: 0 /100WBC
PLATELET COUNT [1]: 1354 x10E3/uL
ALANINE AMINOTRANSFERASE [1]: 54.67 u/L
ALBUMIN [1]: 4.3 G/DL
ALKALINE PHOSPHATASE [1]: 418.33 u/L
ASPARTATE AMINOTRANSFERASE [1]: 81.67 u/L
BLOOD UREA NITROGEN [1]: 16 mg/dL
CARBON DIOXIDE [1]: 26.67 mmol/L
CHLORIDE [1]: 102.67 MEQ/L
CHOLESTEROL [1]: 57.67 mg/dL
CREATINE PHOSPHOKINASE [1]: 284.33 u/L
CREATININE [1]: 0.2 mg/dL
GLUCOSE [1]: 154 mg/dL
LACTATE DEHYDROGENASE [1]: 102.67 u/L
LIPASE [1]: 9.33 u/L
PHOSPHORUS [1]: 12.87 mg/dL
POTASSIUM [1]: 6.84 MEQ/L
SODIUM [1]: 145.4 MEQ/L
TOTAL BILIRUBIN [1]: 0.23 mg/dL
TOTAL PROTEIN [1]: 6.2 G/DL
URIC ACID [1]: 1.83 mg/dL
ABSOLUTE BASOPHIL [2]: 0 CELLS/uL
ABSOLUTE EOSINOPHIL [2]: 0 CELLS/uL
ABSOLUTE LYMPHOCYTE [2]: 11713.67 CELLS/uL
ABSOLUTE MONOCYTE [2]: 379.33 CELLS/uL
ABSOLUTE SEGMENTED NEUTROPHIL [2]: 2140.33 CELLS/uL
BASOPHIL [2]: 0%
EOSINOPHIL [2]: 0%
ERYTHROCYTE COUNT [2]: 5.87 x10E6/uL
HEMATOCRIT [2]: 37.03%
HEMOGLOBIN [2]: 14.47 G/DL
LEUKOCYTE COUNT [2]: 14.23 x10E3/uL
LYMPHOCYTE [2]: 82.33%
MEAN CORPUSCULAR HEMOGLOBIN [2]: 24.63 pg
MEAN CORPUSCULAR HEMOGLOBIN CONCENTRATION [2]: 39.07 G/DL
MEAN CORPUSCULAR VOLUME [2]: 63.17 fL
MONOCYTE [2]: 2.67%
NEUTROPHIL [2]: 15%
NUCLEATED RED BLOOD CELLS [2]: 0 /100WBC
PLATELET COUNT [2]: 1318.33 x10E3/uL
ALANINE AMINOTRANSFERASE [2]: 83 u/L
ALBUMIN [2]: 4.77 G/DL
ALKALINE PHOSPHATASE [2]: 581 u/L
ASPARTATE AMINOTRANSFERASE [2]: 86.67 u/L
BLOOD UREA NITROGEN [2]: 17.33 mg/dL
CARBON DIOXIDE [2]: 31.33 mmol/L
CHLORIDE [2]: 99.33 MEQ/L
CHOLESTEROL [2]: 70 mg/dL
CREATINE PHOSPHOKINASE [2]: 206 u/L
CREATININE [2]: 0.24 mg/dL
GLUCOSE [2]: 118 mg/dL
LACTATE DEHYDROGENASE [2]: 247.33 u/L
LIPASE [2]: 8.67 u/L
PHOSPHORUS [2]: 11.17 mg/dL
POTASSIUM [2]: 5.96 MEQ/L
SODIUM [2]: 145.9 MEQ/L
TOTAL BILIRUBIN [2]: 0.3 mg/dL
TOTAL PROTEIN [2]: 5.73 G/DL
URIC ACID [2]: 1.37 mg/dL
ABSOLUTE BASOPHIL [3]: 0 CELLS/uL
ABSOLUTE EOSINOPHIL [3]: 0 CELLS/uL
ABSOLUTE LYMPHOCYTE [3]: 19502.67 CELLS/uL
ABSOLUTE MONOCYTE [3]: 68 CELLS/uL
ABSOLUTE SEGMENTED NEUTROPHIL [3]: 3096 CELLS/uL
BASOPHIL [3]: 0%
EOSINOPHIL [3]: 0%
ERYTHROCYTE COUNT [3]: 5.71 x10E6/uL
HEMATOCRIT [3]: 35.9%
HEMOGLOBIN [3]: 14.6 G/DL
LEUKOCYTE COUNT [3]: 22.67 x10E3/uL
LYMPHOCYTE [3]: 86.33%
MEAN CORPUSCULAR HEMOGLOBIN [3]: 25.63 pg
MEAN CORPUSCULAR HEMOGLOBIN CONCENTRATION [3]: 40.7 G/DL
MEAN CORPUSCULAR VOLUME [3]: 63 fL
MONOCYTE [3]: 0.33%
NEUTROPHIL [3]: 13.33%
NUCLEATED RED BLOOD CELLS [3]: 0.33 /100WBC
PLATELET COUNT [3]: 1504 x10E3/uL
ALANINE AMINOTRANSFERASE [3]: 136.67 u/L
ALBUMIN [3]: 4.57 G/DL
ALKALINE PHOSPHATASE [3]: 427.67 u/L
ASPARTATE AMINOTRANSFERASE [3]: 109.67 u/L
BLOOD UREA NITROGEN [3]: 17.67 mg/dL
CARBON DIOXIDE [3]: 25.33 mmol/L
CHLORIDE [3]: 98.67 MEQ/L
CHOLESTEROL [3]: 83.67 mg/dL
CREATINE PHOSPHOKINASE [3]: 243 u/L
CREATININE [3]: 0.35 mg/dL
GLUCOSE [3]: 126 mg/dL
LACTATE DEHYDROGENASE [3]: 170.67 u/L
LIPASE [3]: 11.33 u/L
PHOSPHORUS [3]: 11.23 mg/dL
POTASSIUM [3]: 6.06 MEQ/L
SODIUM [3]: 143.63 MEQ/L
TOTAL BILIRUBIN [3]: 0.27 mg/dL
TOTAL PROTEIN [3]: 6 G/DL
URIC ACID [3]: 1.83 mg/dL
